According to ChEMBL document CHEMBL5380843 (J Med Chem, 2023):

Assays:
[1] = Acute toxicity in 12 hr fasted male CD-1(ICR) mouse assessed as behavioral abnormalities at 2 g/Kg, IG measured after 14 days; details: in vivo, po, 2000 mg/kg, 336 h, time 14 day
[2] = AUC (0 to t) in Sprague-Dawley rat at 10 mg/kg, po measured upto 24 hrs by LC-MS/MS analysis; assay type: ADME, organism-based; parameters: dose 10 mg/kg, time < 24 hrs, route po; details: in vivo
[3] = Resistant factor, ratio of EC50 for antiviral activity against HIV-1 IIIB harboring reverse transcriptase […] mutant to EC50 for antiviral activity against wild type HIV-1 IIIB; assay type: functional
[4] = Cmax in Sprague-Dawley rat at 10 mg/kg, po measured upto 24 hrs by LC-MS/MS analysis; assay type: ADME, organism-based; parameters: time < 24 hrs, dose 10 mg/kg, route po; details: in vivo
[5] = Resistant factor, ratio of EC50 for antiviral activity against HIV-1 IIIB harboring reverse transcriptase Y188L mutant to EC50 for antiviral activity against wild type HIV-1 IIIB; assay type: functional
[6] = Oral bioavailability in Sprague-Dawley rat at 10 mg/kg measured upto 24 hrs by LC-MS/MS analysis; assay type: ADME, organism-based; details: in vivo
[7] = Acute toxicity in 12 hr fasted female CD-1(ICR) mouse assessed as behavioral abnormalities at 2 g/Kg, IG measured after 14 days; details: in vivo, po, 2000 mg/kg, 336 h, time 14 day
Cytochrome P450 2C19 = Cytochrome P450 2C19 (Homo sapiens, UniProt P33261); experiment: Inhibition of CYP2C19 in human liver microsomes using S-mephenytoin as substrate incubated for 15 to 45 mins in presence of NADPH; assay type: ADME, Microsome
Cytochrome P450 2C19, sequence (P33261 whole entry): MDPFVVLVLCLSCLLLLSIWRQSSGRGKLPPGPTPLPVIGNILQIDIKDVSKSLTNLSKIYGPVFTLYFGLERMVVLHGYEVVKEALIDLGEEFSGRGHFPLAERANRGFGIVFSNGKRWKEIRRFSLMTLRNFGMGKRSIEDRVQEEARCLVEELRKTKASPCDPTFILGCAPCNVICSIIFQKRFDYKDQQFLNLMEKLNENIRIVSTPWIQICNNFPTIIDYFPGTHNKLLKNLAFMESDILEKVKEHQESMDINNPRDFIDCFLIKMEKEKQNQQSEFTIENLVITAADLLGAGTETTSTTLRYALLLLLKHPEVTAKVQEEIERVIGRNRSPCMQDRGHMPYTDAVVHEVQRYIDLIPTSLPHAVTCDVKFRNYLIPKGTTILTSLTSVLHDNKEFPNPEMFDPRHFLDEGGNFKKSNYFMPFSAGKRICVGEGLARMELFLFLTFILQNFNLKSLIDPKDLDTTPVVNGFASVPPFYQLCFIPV

[8] = target: Human immunodeficiency virus type 1 reverse transcriptase (Human immunodeficiency virus 1, UniProt Q72547); experiment: Inhibition of recombinant wild type HIV-1 reverse transcriptase using DNA/RNA as substrate incubated for 40 mins by Pico-green dye based spectrofluorometric analysis
Cytochrome P450 2D6 = Cytochrome P450 2D6 (Homo sapiens, UniProt P10635); experiment: Inhibition of CYP2D6 in human liver microsomes using dextromethorphan as substrate incubated for 15 to 45 mins in presence of NADPH; assay type: ADME, Microsome
Cytochrome P450 2D6, sequence (P10635 whole entry): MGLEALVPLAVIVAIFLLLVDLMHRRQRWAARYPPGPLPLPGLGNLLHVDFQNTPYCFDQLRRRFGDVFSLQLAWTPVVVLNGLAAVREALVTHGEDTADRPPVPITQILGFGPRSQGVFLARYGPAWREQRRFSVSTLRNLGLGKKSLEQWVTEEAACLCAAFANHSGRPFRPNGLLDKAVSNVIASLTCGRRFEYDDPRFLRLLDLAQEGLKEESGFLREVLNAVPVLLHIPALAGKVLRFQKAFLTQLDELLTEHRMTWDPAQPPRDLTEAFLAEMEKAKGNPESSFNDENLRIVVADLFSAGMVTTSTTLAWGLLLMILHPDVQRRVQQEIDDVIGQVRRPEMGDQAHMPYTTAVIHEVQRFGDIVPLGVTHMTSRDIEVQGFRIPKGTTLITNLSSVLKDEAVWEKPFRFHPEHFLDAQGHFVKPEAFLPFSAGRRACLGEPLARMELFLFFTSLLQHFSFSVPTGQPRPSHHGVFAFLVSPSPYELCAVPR

[9] = Acute toxicity in 12 hr fasted female CD-1(ICR) mouse assessed as changes in body weight at 2 g/Kg, IG measured after 14 days; details: in vivo, po, 2000 mg/kg, 336 h, time 14 day
Cytochrome P450 3A4 [10] = target: T1, Cytochrome P450 3A4 (Homo sapiens, UniProt P08684); experiment: Inhibition of CYP3A4 in human liver microsomes using midazolam as substrate incubated for 15 to 45 mins in presence of NADPH; assay type: ADME, Microsome
T1 sequence (P08684 whole entry): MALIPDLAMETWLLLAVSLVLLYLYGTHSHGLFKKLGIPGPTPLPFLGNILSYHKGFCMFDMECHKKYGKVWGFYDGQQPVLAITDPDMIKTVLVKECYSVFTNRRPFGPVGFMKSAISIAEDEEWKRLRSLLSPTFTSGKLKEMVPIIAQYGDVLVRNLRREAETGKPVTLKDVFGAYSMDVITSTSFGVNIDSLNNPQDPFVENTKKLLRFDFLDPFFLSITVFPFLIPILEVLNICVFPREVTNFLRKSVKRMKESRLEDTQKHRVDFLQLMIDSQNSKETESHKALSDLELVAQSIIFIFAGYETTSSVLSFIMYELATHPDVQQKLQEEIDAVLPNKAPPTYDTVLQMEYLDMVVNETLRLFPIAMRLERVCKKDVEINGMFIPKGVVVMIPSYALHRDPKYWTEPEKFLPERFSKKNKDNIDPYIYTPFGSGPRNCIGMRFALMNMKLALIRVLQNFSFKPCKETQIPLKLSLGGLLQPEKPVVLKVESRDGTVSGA

[11] = Resistant factor, ratio of EC50 for antiviral activity against HIV-1 IIIB harboring reverse transcriptase K103N mutant to EC50 for antiviral activity against wild type HIV-1 IIIB; assay type: functional
[12] = Acute toxicity in 12 hr fasted male CD-1(ICR) mouse assessed as pathological damage in spleen at 2 g/Kg, IG measured after 14 days by H and E staining based analysis; assay type: tissue-based; details: in vivo, po, 2000 mg/kg, 336 h, time 14 day
Cytochrome P450 2C9 = Cytochrome P450 2C9 (Homo sapiens, UniProt P11712); experiment: Inhibition of CYP2C9 in human liver microsomes using tolbutamide as substrate incubated for 15 to 45 mins in presence of NADPH
Cytochrome P450 2C9, sequence (P11712 whole entry): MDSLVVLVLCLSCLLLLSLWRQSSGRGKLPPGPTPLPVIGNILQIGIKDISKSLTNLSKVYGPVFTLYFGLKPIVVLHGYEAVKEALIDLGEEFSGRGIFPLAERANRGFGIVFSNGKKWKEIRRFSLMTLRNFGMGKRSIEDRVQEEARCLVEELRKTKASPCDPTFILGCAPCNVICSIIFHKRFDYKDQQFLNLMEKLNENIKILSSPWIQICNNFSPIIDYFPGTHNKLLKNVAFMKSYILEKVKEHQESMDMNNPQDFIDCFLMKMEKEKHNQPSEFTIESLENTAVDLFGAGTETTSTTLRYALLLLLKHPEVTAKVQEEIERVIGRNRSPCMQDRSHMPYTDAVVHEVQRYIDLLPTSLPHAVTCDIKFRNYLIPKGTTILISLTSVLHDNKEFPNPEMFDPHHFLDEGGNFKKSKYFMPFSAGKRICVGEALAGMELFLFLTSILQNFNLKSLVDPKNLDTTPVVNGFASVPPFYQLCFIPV

[13] = MRT (0 to t) in Sprague-Dawley rat at 1 mg/kg, iv measured upto 24 hrs by LC-MS/MS analysis; assay type: ADME, organism-based; details: in vivo
Cytochrome P450 3A4 [14] = target: T1, Cytochrome P450 3A4; experiment: Inhibition of CYP3A4 in human liver microsomes using testosterone as substrate incubated for 15 to 45 mins in presence of NADPH; assay type: ADME, Microsome
[15] = Half life in Sprague-Dawley rat at 10 mg/kg, po measured upto 24 hrs by LC-MS/MS analysis; assay type: ADME, organism-based; details: in vivo
[16] = Acute toxicity in 12 hr fasted female CD-1(ICR) mouse assessed as pathological damage in kidney at 2 g/Kg, IG measured after 14 days by H and E staining based analysis; assay type: tissue-based; details: in vivo, po, 2000 mg/kg, 336 h, time 14 day
[17] = AUC (0 to t) in Sprague-Dawley rat at 1 mg/kg, iv measured upto 24 hrs by LC-MS/MS analysis; assay type: ADME, organism-based; parameters: time < 24 hrs, dose 1 mg/kg, route iv; details: in vivo
[18] = Acute toxicity in 12 hr fasted male CD-1(ICR) mouse assessed as pathological damage in brain at 2 g/Kg, IG measured after 14 days by H and E staining based analysis; assay type: tissue-based; details: in vivo, po, 2000 mg/kg, 336 h, time 14 day
[19] = AUC (0 to infinity) in Sprague-Dawley rat at 1 mg/kg, iv measured upto 24 hrs by LC-MS/MS analysis; assay type: ADME, organism-based; parameters: time < 24 hrs, dose 1 mg/kg, route iv; details: in vivo
[20] = tested on: Human immunodeficiency virus 1; experiment: Antiviral activity against wild type HIV-1 IIIB harboring reverse transcriptase K103N mutant infected in human MT4 cells assessed as protection against virus-induced cytopathic effect incubated for 5 days by MTT assay; assay type: functional, organism-based; details: Human immunodeficiency virus 1, IIIB, MT4, 120 h
[21] = Resistant factor, ratio of EC50 for antiviral activity against HIV-1 IIIB harboring reverse transcriptase Y181C mutant to EC50 for antiviral activity against wild type HIV-1 IIIB; assay type: functional
[22] = target: Voltage-gated inwardly rectifying potassium channel KCNH2 (Homo sapiens, UniProt Q12809); experiment: Inhibition of hERG expressed in CHO cells by Qpatch assay; assay type: toxicity, cell-based
Voltage-gated inwardly rectifying potassium channel KCNH2, sequence (Q12809 whole entry): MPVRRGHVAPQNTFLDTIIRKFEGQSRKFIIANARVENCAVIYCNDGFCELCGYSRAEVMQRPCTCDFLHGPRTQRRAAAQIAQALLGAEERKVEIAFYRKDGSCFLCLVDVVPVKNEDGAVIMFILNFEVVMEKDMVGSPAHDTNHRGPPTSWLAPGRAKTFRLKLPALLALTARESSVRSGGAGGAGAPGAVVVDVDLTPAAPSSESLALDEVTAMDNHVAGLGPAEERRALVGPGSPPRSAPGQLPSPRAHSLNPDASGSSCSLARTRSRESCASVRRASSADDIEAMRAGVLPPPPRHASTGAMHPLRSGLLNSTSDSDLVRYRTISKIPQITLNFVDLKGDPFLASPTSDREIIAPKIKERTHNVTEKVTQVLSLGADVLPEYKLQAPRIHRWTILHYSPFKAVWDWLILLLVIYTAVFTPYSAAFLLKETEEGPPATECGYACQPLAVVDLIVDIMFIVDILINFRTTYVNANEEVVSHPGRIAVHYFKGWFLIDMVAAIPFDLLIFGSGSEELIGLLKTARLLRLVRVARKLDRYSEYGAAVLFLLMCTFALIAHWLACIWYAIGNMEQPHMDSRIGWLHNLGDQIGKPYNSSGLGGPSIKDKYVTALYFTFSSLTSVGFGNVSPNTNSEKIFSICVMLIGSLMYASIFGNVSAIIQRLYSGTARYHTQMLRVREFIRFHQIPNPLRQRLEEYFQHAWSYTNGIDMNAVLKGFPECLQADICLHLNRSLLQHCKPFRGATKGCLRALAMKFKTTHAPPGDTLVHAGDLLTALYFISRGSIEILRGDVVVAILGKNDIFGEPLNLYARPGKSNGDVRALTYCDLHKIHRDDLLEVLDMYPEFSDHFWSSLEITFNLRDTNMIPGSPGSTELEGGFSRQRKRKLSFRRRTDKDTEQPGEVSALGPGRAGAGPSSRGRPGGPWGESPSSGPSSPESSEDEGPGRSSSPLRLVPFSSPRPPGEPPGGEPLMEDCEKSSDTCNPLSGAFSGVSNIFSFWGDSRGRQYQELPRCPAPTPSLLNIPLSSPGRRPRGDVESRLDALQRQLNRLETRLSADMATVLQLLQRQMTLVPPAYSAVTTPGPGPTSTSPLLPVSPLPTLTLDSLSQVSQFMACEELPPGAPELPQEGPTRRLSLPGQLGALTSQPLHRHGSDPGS

[23] = tested on: Human immunodeficiency virus 1; experiment: Antiviral activity against wild type HIV-1 IIIB harboring reverse transcriptase E138K mutant infected in human MT4 cells assessed as protection against virus-induced cytopathic effect incubated for 5 days by MTT assay; assay type: functional, organism-based; details: Human immunodeficiency virus 1, IIIB, MT4, 120 h
[24] = Tmax in Sprague-Dawley rat at 10 mg/kg, po measured upto 24 hrs by LC-MS/MS analysis; assay type: ADME, organism-based; details: in vivo
[25] = Resistant factor, ratio of EC50 for antiviral activity against HIV-1 IIIB harboring reverse transcriptase E138K mutant to EC50 for antiviral activity against wild type HIV-1 IIIB; assay type: functional
[26] = Tmax in Sprague-Dawley rat at 1 mg/kg, iv measured upto 24 hrs by LC-MS/MS analysis; assay type: ADME, organism-based; details: in vivo
[27] = MRT (0 to infinity) in Sprague-Dawley rat at 10 mg/kg, po measured upto 24 hrs by LC-MS/MS analysis; assay type: ADME, organism-based; details: in vivo
[28] = AUC (0 to infinity) in Sprague-Dawley rat at 10 mg/kg, po measured upto 24 hrs by LC-MS/MS analysis; assay type: ADME, organism-based; parameters: dose 10 mg/kg, time < 24 hrs, route po; details: in vivo
[29] = Acute toxicity in 12 hr fasted female CD-1(ICR) mouse assessed as pathological damage in liver at 2 g/Kg, IG measured after 14 days by H and E staining based analysis; assay type: tissue-based; details: in vivo, po, 2000 mg/kg, 336 h, time 14 day
[30] = Acute toxicity in 12 hr fasted female CD-1(ICR) mouse assessed as pathological damage in spleen at 2 g/Kg, IG measured after 14 days by H and E staining based analysis; assay type: tissue-based; details: in vivo, po, 2000 mg/kg, 336 h, time 14 day
[31] = Acute toxicity in 12 hr fasted male CD-1(ICR) mouse assessed as pathological damage in heart at 2 g/Kg, IG measured after 14 days by H and E staining based analysis; assay type: tissue-based; details: in vivo, po, 2000 mg/kg, 336 h, time 14 day
[32] = Cmax in Sprague-Dawley rat at 1 mg/kg, iv measured upto 24 hrs by LC-MS/MS analysis; assay type: ADME, organism-based; parameters: time < 24 hrs, dose 1 mg/kg, route iv; details: in vivo
[33] = tested on: Human immunodeficiency virus 1; experiment: Antiviral activity against wild type HIV-1 IIIB infected in human MT4 cells assessed as protection against virus-induced cytopathic effect incubated for 5 days by MTT assay; assay type: functional, organism-based; details: Human immunodeficiency virus 1, IIIB, MT4, 120 h
[34] = Acute toxicity in 12 hr fasted male CD-1(ICR) mouse assessed as pathological damage in liver at 2 g/Kg, IG measured after 14 days by H and E staining based analysis; assay type: tissue-based; details: in vivo, po, 2000 mg/kg, 336 h, time 14 day
[35] = MRT (0 to t) in Sprague-Dawley rat at 10 mg/kg, po measured upto 24 hrs by LC-MS/MS analysis; assay type: ADME, organism-based; details: in vivo

Compound: CONC(=O)c1cnc(Nc2ccc(C#N)cc2)nc1Oc1c(C)cc(-c2ccc(C#N)cc2)cc1C
- Activity [1]: Non-Toxic
- AUC(0-t) at 24 h [2]: 3570 ng·h/mL
- Ratio EC50 [3]: 5.7
- Cmax [4]: 616 ng/mL
- Ratio EC50 [5]: 23
- bioavailability [6]: 31.2%
- Activity [7]: Non-Toxic
- IC50 (Cytochrome P450 2C19): 23.6 µM
- IC50 [8]: 0.047 µM
- IC50 (Cytochrome P450 2D6): > 50 µM
- Activity [9]: Non-Toxic
- IC50 (Cytochrome P450 3A4 [10]): > 50 µM
- Ratio EC50 [11]: 3.5
- Activity [12]: Non-Toxic
- IC50 (Cytochrome P450 2C9): 18.5 µM
- MRT last at 24 h [13]: 3.56 h
- IC50 (Cytochrome P450 3A4 [14]): > 50 µM
- half-life [15]: 5.18 h
- Activity [16]: Non-Toxic
- AUC(0-t) at 24 h [17]: 1160 ng·h/mL
- Activity [18]: Non-Toxic
- AUC(0-inf) [19]: 1170 ng·h/mL
- EC50 [20]: 0.008 µM
- Ratio EC50 [21]: 13
- IC50 [22]: > 40 µM
- EC50 [23]: 0.006 µM
- Tmax [24]: 2 h
- Ratio EC50 [25]: 2.6
- Tmax [26]: 4.98 min
- MRT inf [27]: 5.21 h
- AUC(0-inf) [28]: 3650 ng·h/mL
- Activity [29]: Non-Toxic
- Activity [30]: Non-Toxic
- Activity [31]: Non-Toxic
- Cmax [32]: 431 ng/mL
- EC50 [33]: 0.002 µM
- Activity [34]: Non-Toxic
- MRT last at 24 h [35]: 4.54 h
